According to ChEMBL document CHEMBL6109180, “De Novo-Designed APC/C Inhibitors Provide a Rationale for Targeting RING-Type E3 Ubiquitin Ligases” (J Med Chem, 2025):
Calls of active or inactive are those of the source. The calls are words filed in the database; no cut-off is given here. Bridge positions count the residues as written; N and C are the ends. Square brackets hold non-standard residues; d marks the D form. Peptide text beside a SMILES is read from it. R8 = C=CCCCCCC[C@@](C)(N)C(=O)O; S5 = C=CCCC[C@](C)(N)C(=O)O; AEA = NCCOCC(=O)O

What was measured:
[1] = test system: HeLa; experiment: Induction of mitotic arrest in human HeLa cells assessed as cells in prolongation at 50 uM measured up to 213 mins by time-lapse imaging analysis relative to control; type: functional; conditions: 3.55 h
[2] = test system: RKO; experiment: Induction of mitotic arrest in human RKO cells assessed as cells in prolongation at 50 uM measured up to 213 mins by time-lapse imaging analysis relative to control; type: functional; conditions: 3.55 h
[3] = test system: HeLa; experiment: Induction of mitotic arrest in human HeLa cells assessed as time length at 50 uM measured up to 213 mins by time-lapse imaging analysis; type: functional; conditions: 3.55 h
[4] = test system: HeLa; experiment: Induction of mitotic arrest in human HeLa cells assessed as prolongation in metaphase at 50 uM measured up to 213 mins by time-lapse imaging analysis; type: functional, cell-based
[5] = test system: HT-1080; experiment: Induction of mitotic arrest in human HT-1080 cells assessed as cells in prolongation at 50 uM measured up to 213 mins by time-lapse imaging analysis relative to control; type: functional; conditions: 3.55 h
[6] = test system: A549; experiment: Induction of mitotic arrest in human A549 cells assessed as cells in prolongation at 50 uM measured up to 213 mins by time-lapse imaging analysis relative to control; type: functional; conditions: 3.55 h
[7] = test system: MDA-MB-231; experiment: Effect on time length of mitosis in human MDA-MB-231 cells at 50 uM incubated for 10 to 24 hrs by live cell microscopy; type: functional, cell-based; conditions: time 10-24 hrs
[8] = test system: SW480; experiment: Effect on time length of mitosis in human SW480 cells at 50 uM incubated for 10 to 24 hrs by live cell microscopy; type: functional, cell-based; conditions: time 10-24 hrs

In the case of `CC[C@H](C)[C@@H]1NC(=O)[C@H](CCC(=O)O)NC(=O)[C@H](CCCCN)NC(=O)[C@H]([C@@H](C)CC)NC(=O)[C@](C)(NC(=O)[C@H](Cc2c[nH]c3ccccc23)NC(=O)[C@H](Cc2c[nH]c3ccccc23)NC(=O)[C@H](CCC(=O)O)NC(=O)COCCNC(=O)CNC(=O)[C@H](Cc2ccccc2)NC(=O)[C@H](Cc2c[nH]c3ccccc23)NC(=O)[C@H](Cc2ccccc2)NC(=O)CNC(C)=O)CCCCCC/C=C\CCC[C@@](C)(C(=O)N[C@@H](CCCNC(=N)N)C(=O)N[C@@H](CCCNC(=N)N)C(=O)N[C@@H](C)C(N)=O)NC(=O)[C@H](CCCNC(=N)N)NC(=O)[C@H](CCC(N)=O)NC1=O` (Ac-GFWFG[AEA]EWW[R8]IKEIQR[S5]RRA-NH2; staple (Z) 10-17), the Activity [1] is reported as 75%, the Activity [2] is reported as 75% and the Time [3] is reported as “<=2 hr”. For the same compound, the Activity [4] was “Active”, the Activity [5] was 75% and the Activity [6] was 75%. For the same compound, the Activity [7] was “No effect” and the Activity [8] was “No effect”.
